What was measured:
Experiment in all cases: cells
Ramos-2G6-4C10 = assay type: functional, cell-based; conditions: Homo sapiens;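 further: growth inhibition of the cell line, measured by a cell viability read-out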
Description: SANGER: Inhibition of human Ramos-2G6-4C10 cell growth in a cell viability assay.

NCI-H1623 = assay type: functional, cell-based, Homo sapiens; conditions: Homo sapiens, NCI-H1623;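 further: cell viability assay used as the read-out for growth inhibition of NCI-H1623 cells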
Description: SANGER: Inhibition of human NCI-H1623 cell growth in a cell viability assay.

AN3-CA = assay type: functional, cell-based; conditions: Homo sapiens;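 further: growth inhibition of human AN3-CA cells measured by a cell viability assay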
Description: SANGER: Inhibition of human AN3-CA cell growth in a cell viability assay.

NCI-H1304 = assay type: functional, cell-based; conditions: Homo sapiens;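 further: growth inhibition of the cancer cell line, measured in a cell viability assay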
Description: SANGER: Inhibition of human NCI-H1304 cell growth in a cell viability assay.

MDA-MB-231 = assay type: functional, cell-based, Homo sapiens; conditions: Homo sapiens, MDA-MB-231
Description: SANGER: Inhibition of human MDA-MB-231 cell growth in a cell viability assay.

SNU-C2B = assay type: functional, cell-based, Homo sapiens; conditions: Homo sapiens, SNU-C2B;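 further: cell viability readout used to measure compound-driven suppression of SNU-C2B cell proliferation, IC50 marking half-maximal growth inhibition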
Description: SANGER: Inhibition of human SNU-C2B cell growth in a cell viability assay.

KARPAS-45 = assay type: functional, cell-based; conditions: Homo sapiens;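 further: inhibition of cell line growth, read out through a viability assay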
Description: SANGER: Inhibition of human KARPAS-45 cell growth in a cell viability assay.

NCI-H82 = assay type: functional, cell-based; conditions: Homo sapiens;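 further: growth inhibition of NCI-H82 cells, measured with a cell viability readout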
Description: SANGER: Inhibition of human NCI-H82 cell growth in a cell viability assay.

NCI-H1651 = assay type: functional, cell-based, Homo sapiens; conditions: Homo sapiens, NCI-H1651;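 further: Read-out is a cell viability assay, with IC50 expressing inhibition of NCI-H1651 cell growth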
Description: SANGER: Inhibition of human NCI-H1651 cell growth in a cell viability assay.

Daoy = assay type: functional, cell-based, Homo sapiens; conditions: Homo sapiens, Daoy;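 further: daoy cell growth inhibition, read out as cell viability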
Description: SANGER: Inhibition of human Daoy cell growth in a cell viability assay.

SK-MES-1 = assay type: functional, cell-based, Homo sapiens; conditions: Homo sapiens, SK-MES-1;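 further: growth inhibition of human SK-MES-1 cells, read out with a cell viability assay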
Description: SANGER: Inhibition of human SK-MES-1 cell growth in a cell viability assay.

MDA-MB-453 = assay type: functional, cell-based, Homo sapiens; conditions: Homo sapiens, MDA-MB-453
Description: SANGER: Inhibition of human MDA-MB-453 cell growth in a cell viability assay.

HCC2157 = assay type: functional, cell-based; conditions: Homo sapiens;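 further: growth inhibition of the cancer cell line, read out as cell viability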
Description: SANGER: Inhibition of human HCC2157 cell growth in a cell viability assay.

NCI-H209 = assay type: functional, cell-based; conditions: Homo sapiens;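 further: growth inhibition of human NCI-H209 cells, measured by a cell viability assay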
Description: SANGER: Inhibition of human NCI-H209 cell growth in a cell viability assay.

AM-38 = assay type: functional, cell-based, Homo sapiens; conditions: Homo sapiens, AM-38;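 further: growth inhibition of AM-38 cells of human origin, read out by a cell viability assay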
Description: SANGER: Inhibition of human AM-38 cell growth in a cell viability assay.

CAL-12T = assay type: functional, cell-based, Homo sapiens; conditions: Homo sapiens, CAL-12T;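 further: growth inhibition of human CAL-12T cells, read out with a cell viability assay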
Description: SANGER: Inhibition of human CAL-12T cell growth in a cell viability assay.

KGN = assay type: functional, cell-based, Homo sapiens; conditions: Homo sapiens, KGN;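 further: growth inhibition of KGN cells, read out with a cell viability assay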
Description: SANGER: Inhibition of human KGN cell growth in a cell viability assay.

SW756 = assay type: functional, cell-based, Homo sapiens; conditions: Homo sapiens, SW756;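 further: growth inhibition of human SW756 cells, read out with a cell viability assay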
Description: SANGER: Inhibition of human SW756 cell growth in a cell viability assay.

8505C = assay type: functional, cell-based, Homo sapiens; conditions: Homo sapiens, 8505C
Description: SANGER: Inhibition of human 8505C cell growth in a cell viability assay.

Mo = assay type: functional, cell-based; conditions: Homo sapiens
Description: SANGER: Inhibition of human Mo-T cell growth in a cell viability assay.

A704 = assay type: functional, cell-based, Homo sapiens; conditions: Homo sapiens, A704;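 further: growth inhibition of human A704 cells, read out with a cell viability assay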
Description: SANGER: Inhibition of human A704 cell growth in a cell viability assay.

RVH-421 = assay type: functional, cell-based, Homo sapiens; conditions: Homo sapiens, RVH-421
Description: SANGER: Inhibition of human RVH-421 cell growth in a cell viability assay.

TE-12 = assay type: functional, cell-based; conditions: Homo sapiens;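 further: growth inhibition of TE-12 cells, read out by a cell viability assay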
Description: SANGER: Inhibition of human TE-12 cell growth in a cell viability assay.

MKN-45 = assay type: functional, cell-based, Homo sapiens; conditions: Homo sapiens, MKN-45;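 further: growth inhibition of human MKN-45 cells, measured with a cell viability assay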
Description: SANGER: Inhibition of human MKN45 cell growth in a cell viability assay.

HuP-T3 = assay type: functional, cell-based, Homo sapiens; conditions: Homo sapiens, HuP-T3;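 further: HuP-T3 cell growth inhibition, read out with a cell viability assay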
Description: SANGER: Inhibition of human HuP-T3 cell growth in a cell viability assay.

D-336MG = assay type: functional, cell-based, Homo sapiens; conditions: Homo sapiens, D-336MG
Description: SANGER: Inhibition of human D-336MG cell growth in a cell viability assay.

U-266 = assay type: functional, cell-based; conditions: Homo sapiens
Description: SANGER: Inhibition of human U-266 cell growth in a cell viability assay.

KG-1 = assay type: functional, cell-based; conditions: Homo sapiens;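 further: growth inhibition of KG-1 cells, read out by a cell viability assay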
Description: SANGER: Inhibition of human KG-1 cell growth in a cell viability assay.

CAL-72 = assay type: functional, cell-based, Homo sapiens; conditions: Homo sapiens, CAL-72;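 further: cell viability assay measuring inhibition of proliferation in the CAL-72 cell line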
Description: SANGER: Inhibition of human CAL-72 cell growth in a cell viability assay.

RERF-LC-MS = assay type: functional, cell-based, Homo sapiens; conditions: Homo sapiens, RERF-LC-MS;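 further: growth inhibition of human RERF-LC-MS cells, read out by a cell viability assay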
Description: SANGER: Inhibition of human RERF-LC-MS cell growth in a cell viability assay.

NCI-H292 = assay type: functional, cell-based, Homo sapiens; conditions: Homo sapiens, NCI-H292;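 further: growth inhibition of NCI-H292 cells, read out with a cell viability assay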
Description: SANGER: Inhibition of human NCI-H292 cell growth in a cell viability assay.

GAK = assay type: functional, cell-based, Homo sapiens; conditions: Homo sapiens, GAK;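 further: cell growth inhibition read out by a cell viability assay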
Description: SANGER: Inhibition of human GAK cell growth in a cell viability assay.

MCF7 = assay type: functional, cell-based, Homo sapiens; conditions: Homo sapiens, MCF7;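 further: growth inhibition of human MCF7 cells, read out with a cell viability assay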
Description: SANGER: Inhibition of human MCF7 cell growth in a cell viability assay.

NMC-G1 = assay type: functional, cell-based, Homo sapiens; conditions: Homo sapiens, NMC-G1;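 further: growth inhibition of the NMC-G1 cell line, measured with a cell viability read-out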
Description: SANGER: Inhibition of human NMC-G1 cell growth in a cell viability assay.

RH-1 = assay type: functional, cell-based, Homo sapiens; conditions: Homo sapiens, RH-1;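 further: growth inhibition of human RH-1 cells, read out with a cell viability assay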
Description: SANGER: Inhibition of human RH-1 cell growth in a cell viability assay.

A673 = assay type: functional, cell-based, Homo sapiens; conditions: Homo sapiens, A673;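 further: growth inhibition of human A673 cells, read out through a cell viability assay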
Description: SANGER: Inhibition of human A673 cell growth in a cell viability assay.

A2058 = assay type: functional, cell-based; conditions: Homo sapiens;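 further: reduction of A2058 cell growth, read out with a viability assay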
Description: SANGER: Inhibition of human A2058 cell growth in a cell viability assay.

SN12C = assay type: functional, cell-based, Homo sapiens; conditions: Homo sapiens, SN12C;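 further: growth inhibition of human SN12C cells, measured by a cell viability assay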
Description: SANGER: Inhibition of human SN12C cell growth in a cell viability assay.

SF-126 = assay type: functional, cell-based, Homo sapiens; conditions: Homo sapiens, SF-126;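 further: growth inhibition of human SF126 cells, read out with a cell viability assay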
Description: SANGER: Inhibition of human SF126 cell growth in a cell viability assay.

CWR22R = assay type: functional, cell-based, Homo sapiens; conditions: Homo sapiens, 22Rv1;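 further: growth inhibition of 22Rv1 cells, read out with a cell viability assay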
Description: SANGER: Inhibition of human 22RV1 cell growth in a cell viability assay.

JVM-2 = assay type: functional, cell-based; conditions: Homo sapiens;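 further: growth inhibition of JVM-2 cells determined by a cell viability assay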
Description: SANGER: Inhibition of human JVM-2 cell growth in a cell viability assay.

639-V = assay type: functional, cell-based, Homo sapiens; conditions: Homo sapiens, 639-V;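 further: growth inhibition of 639-V cells, read out with a cell viability assay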
Description: SANGER: Inhibition of human 639-V cell growth in a cell viability assay.

EW-18 = assay type: functional, cell-based; conditions: Homo sapiens;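 further: growth inhibition of EW-18 cells, read out by a cell viability assay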
Description: SANGER: Inhibition of human EW-18 cell growth in a cell viability assay.

SKG-IIIa = assay type: functional, cell-based, Homo sapiens; conditions: Homo sapiens, SKG-IIIa;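 further: cell growth inhibition, read out with a cell viability assay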
Description: SANGER: Inhibition of human SKG-IIIa cell growth in a cell viability assay.

NCI-H747 = assay type: functional, cell-based; conditions: Homo sapiens;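 further: growth inhibition of human NCI-H747 cells, read out by a cell viability assay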
Description: SANGER: Inhibition of human NCI-H747 cell growth in a cell viability assay.

Becker = assay type: functional, cell-based, Homo sapiens; conditions: Homo sapiens, Becker;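 further: growth inhibition of Becker cells, read out with a cell viability assay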
Description: SANGER: Inhibition of human Becker cell growth in a cell viability assay.

PFSK-1 = assay type: functional, cell-based, Homo sapiens; conditions: Homo sapiens, PFSK-1;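 further: cell viability assay measuring how strongly compounds suppress growth of human PFSK-1 cells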
Description: SANGER: Inhibition of human PFSK-1 cell growth in a cell viability assay.

D283 Med = assay type: functional, cell-based, Homo sapiens; conditions: Homo sapiens, D283 Med
Description: SANGER: Inhibition of human D-283MED cell growth in a cell viability assay.

D-542MG = assay type: functional, cell-based, Homo sapiens; conditions: Homo sapiens, D-542MG
Description: SANGER: Inhibition of human D-542MG cell growth in a cell viability assay.

MLMA = assay type: functional, cell-based, Homo sapiens; conditions: Homo sapiens, MLMA;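 further: growth inhibition of MLMA cells (human), determined through a cell viability readout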
Description: SANGER: Inhibition of human MLMA cell growth in a cell viability assay.

SW626 = assay type: functional, cell-based, Homo sapiens; conditions: Homo sapiens, SW626;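 further: growth inhibition of SW626 cells, measured with a cell viability assay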
Description: SANGER: Inhibition of human SW626 cell growth in a cell viability assay.

CCOc1nc(NC(=O)Cc2cc(OC)ccc2OC)cc(N)c1C#N
IC50 (Ramos-2G6-4C10): > 10 µM | IC50 (NCI-H1623): > 10 µM | IC50 (AN3-CA): > 10 µM | IC50 (NCI-H1304): > 10 µM | IC50 (MDA-MB-231): > 10 µM | IC50 (SNU-C2B): > 10 µM | IC50 (KARPAS-45): > 10 µM | IC50 (NCI-H82): > 10 µM | IC50 (NCI-H1651): > 10 µM | IC50 (Daoy): > 10 µM | IC50 (SK-MES-1): > 10 µM | IC50 (MDA-MB-453): > 10 µM | IC50 (HCC2157): > 10 µM | IC50 (NCI-H209): > 10 µM | IC50 (AM-38): > 10 µM | IC50 (CAL-12T): > 10 µM | IC50 (KGN): > 10 µM | IC50 (SW756): > 10 µM | IC50 (8505C): > 10 µM | IC50 (Mo): > 10 µM | IC50 (A704): > 10 µM | IC50 (RVH-421): > 10 µM | IC50 (TE-12): > 10 µM | IC50 (MKN-45): > 10 µM | IC50 (HuP-T3): > 10 µM | IC50 (D-336MG): > 10 µM | IC50 (U-266): > 10 µM | IC50 (KG-1): > 10 µM | IC50 (CAL-72): > 10 µM | IC50 (RERF-LC-MS): > 10 µM | IC50 (NCI-H292): > 10 µM | IC50 (GAK): > 10 µM | IC50 (MCF7): > 10 µM | IC50 (NMC-G1): > 10 µM | IC50 (RH-1): > 10 µM | IC50 (A673): > 10 µM | IC50 (A2058): > 10 µM | IC50 (SN12C): > 10 µM | IC50 (SF-126): > 10 µM | IC50 (CWR22R): > 10 µM | IC50 (JVM-2): > 10 µM | IC50 (639-V): > 10 µM | IC50 (EW-18): > 10 µM | IC50 (SKG-IIIa): > 10 µM | IC50 (NCI-H747): > 10 µM | IC50 (Becker): > 10 µM | IC50 (PFSK-1): > 10 µM | IC50 (D283 Med): > 10 µM | IC50 (D-542MG): > 10 µM | IC50 (MLMA): > 10 µM | IC50 (SW626): > 10 µM

CC(=O)O[C@@H]1[C@@H](OC(C)=O)[C@@H](O)[C@H](Oc2c(-c3ccc(O)cc3)oc3cc(O)cc(O)c3c2=O)O[C@H]1C
IC50 (Ramos-2G6-4C10): > 10 µM | IC50 (NCI-H1623): > 10 µM | IC50 (AN3-CA): > 10 µM | IC50 (NCI-H1304): > 10 µM | IC50 (MDA-MB-231): > 10 µM | IC50 (SNU-C2B): > 10 µM | IC50 (KARPAS-45): > 10 µM | IC50 (NCI-H82): 5.06 µM | IC50 (NCI-H1651): > 10 µM | IC50 (Daoy): > 10 µM | IC50 (SK-MES-1): > 10 µM | IC50 (MDA-MB-453): > 10 µM | IC50 (HCC2157): 5.65 µM | IC50 (NCI-H209): > 10 µM | IC50 (AM-38): > 10 µM | IC50 (CAL-12T): > 10 µM | IC50 (KGN): > 10 µM | IC50 (SW756): > 10 µM | IC50 (8505C): > 10 µM | IC50 (Mo): > 10 µM | IC50 (A704): > 10 µM | IC50 (RVH-421): > 10 µM | IC50 (TE-12): > 10 µM | IC50 (MKN-45): > 10 µM | IC50 (HuP-T3): > 10 µM | IC50 (D-336MG): > 10 µM | IC50 (U-266): > 10 µM | IC50 (KG-1): > 10 µM | IC50 (CAL-72): 3.89 µM | IC50 (RERF-LC-MS): > 10 µM | IC50 (NCI-H292): > 10 µM | IC50 (GAK): > 10 µM | IC50 (MCF7): > 10 µM | IC50 (NMC-G1): > 10 µM | IC50 (RH-1): > 10 µM | IC50 (A673): > 10 µM | IC50 (A2058): > 10 µM | IC50 (SN12C): > 10 µM | IC50 (SF-126): > 10 µM | IC50 (CWR22R): > 10 µM | IC50 (JVM-2): > 10 µM | IC50 (639-V): > 10 µM | IC50 (EW-18): > 10 µM | IC50 (SKG-IIIa): > 10 µM | IC50 (NCI-H747): > 10 µM | IC50 (Becker): > 10 µM | IC50 (PFSK-1): > 10 µM | IC50 (D283 Med): > 10 µM | IC50 (D-542MG): > 10 µM | IC50 (MLMA): > 10 µM | IC50 (SW626): > 10 µM

Reference: ChEMBL document CHEMBL1201861, “Genomics of Drug Sensitity in Cancer screening data, Wellcome Trust Sanger Institute”
